Data on one compound can be found in patent US9493466B2, “Treatment of cancer with TOR kinase inhibitors” (Signal Pharmaceuticals, LLC, priority 2011, dated 2016).

In one data set the test system is HCC1428. The data set can be described thus: Growth inhibition assay for breast cancer. It is filed as cell-based. Particulars: HCC1428 (Luminal, ER+), 96 hours. An excerpt:
Growth Inhibition Assay for Breast Cancer (BC) (Compound 1). All breast cancer cell lines were maintained and tested in appropriate culture media. The seeding density for each cell line was optimized to ensure assay linearity in 384-well plates.
Increasing concentrations of Compound 1 were spotted via an acoustic dispenser (EDC ATS-100) into an empty 384-well plate. Compound 1 was spotted in a 10-point serial dilution fashion (3-fold dilution) in duplicate within the plate. The dimethyl sulfoxide (DMSO) concentration was kept constant for a final assay concentration of 0.1% DMSO. Plates were replicated for use against different cell lines and testing periods. After compound plate replication, all plates were sealed (Agilent ThermoLoc) and stored at −20° C. for up to 1 month. When ready for testing, plates were removed from the freezer, thawed, and unsealed just prior to the addition of the test cell.
Prior to testing, cells were grown and expanded in culture flasks to provide sufficient amounts of starting material. Cells were then diluted to their desired densities and added directly to the Compound 1-spotted 384-well plates. Cells were allowed to grow for 96 hours at 37° C./5% CO2. At the time of setup (t0), initial cell number was assessed via a viability assay (Cell Titer-Glo) and read for luminescence. After 96 hours, cell viability of Compound 1-treated cells was assessed via Cell Titer-Glo and read for luminescence.
Cell lines were assayed for growth inhibition by Compound 1 for at least two independent tests. All data was normalized and represented as a percentage of the DMSO-treated control cells. […] The potency of Compound 1 in different subtypes of breast cancer cell lines is shown in FIG. 7A, while the correlation of Compound 1 sensitivity to ER, HER, PIK3CA, and TP53 status is shown in FIG. 7B.

In another data set the test system is HCT-116 tumors. Put plainly: HCT-116 human colorectal cancer xenograft model. It is filed as in vivo, SCID mice. As to the method:
HCT-116 Human Colorectal Cancer Xenograft Model. The HCT-116 cell line was obtained from American Tissue Culture Collection (ATCC) (Gaithersberg, Md.) and grown in growth medium containing McCoy's 5A medium with 2 mM L-glutamine adjusted to contain 90% and 10% of fetal bovine serum. The cells were detached from tissue culture flasks using trypsin-EDTA. After centrifugation, the cell pellets were suspended in phosphate buffered saline (PBS) and counted using a hemocytometer. Matrigel was added to the cell suspension to adjust the final volume to 2×10^6 cells/0.1 mL of 1:1 mixture of Matrigel: PBS.
Female 6-8 weeks old CB17 SCID mice were obtained from Charles River Laboratories at a body weight of 17-20 g. Mice were anesthetized with inhaled isoflurane and then inoculated with HCT-116 tumor cells subcutaneously on the right hind leg with 0.1 mL of a single cell suspension using a sterile 1 mL syringe fitted with a 26 gauge needle. Following inoculation, the mice were returned to microisolator cages. The tumors were allowed to grow to about 100 mm^3 prior to randomization. The typical number of days required for tumors to reach 100 mm^3 was 7 to 8 days. The tumor of each animal was measured and animals with tumors ranging between 100 and 150 mm^3 were included in the study. The animals were distributed randomly into various cages and the cages were randomly assigned to vehicle, positive control, or test article groups. All of the mice were tagged with metal ear tags on the right ear. A typical group consisted of 8 to 10 animals.
Compound 1 was formulated in 0.5% CMC and 0.25% Tween 80 in water (as a suspension). The formulations were homogenized using a Teflon pestle and mortar (Potter-Elvehjem tissue grinder). Between the doses, the formulated compound was stored under constant stirring using a magnetic stirrer at 4° C. in the dark. The test article and vehicle were administered by oral gavage. The positive control (rapamycin) was prepared as solution in 2% ethanol, 45% polyethyleneglycol 400, and 53% saline and administered by IP injection. Vehicle and the test article were dosed in a volume of 5 mL/kg. The positive control rapamycin was dosed in a volume of 10 mL/kg. Sterile syringes and gavage needles were used for compound administration. All the procedures including injections were done in biosafety cabinets sprayed with ethanol prior to use.
Groups of female SCID mice bearing HCT-116 tumors (n=9-10/group) were dosed orally with vehicle or Compound 1 (1 mg/kg to 50 mg/kg) twice daily (BID), once daily (QD), every second day (Q2D), every third day (Q3D) or every 5th day (Q5D) throughout the study starting when the tumor volumes reached approximately 100 mm^3. The BID dose groups were dosed with a 10 h separation between the morning and evening doses. In the positive control group, rapamycin (n=6/group) was administered via the intraperitoneal (IP) route Q3D. At the end of each study, plasma and/or tumor samples were collected.
Tumor volumes were determined prior to the initiation of treatment and were considered as the starting volumes. Thereafter, tumors were measured twice a week for the duration of the study. The long and short axes of each tumor were measured using a digital caliper in millimeters. The tumor volumes were calculated using the formula: width^2×length/2 (using long [L] and short [W] axes of tumors). The tumor volumes were expressed in cubic millimeters (mm^3). Tumor volume data are expressed as mean±SE. The difference in tumor volume between vehicle and treatment group was expressed in percent volume reduction=100−tumor volume of treated/tumor volume of control×100. Statistical analysis was done using Graphpad Prism. Comparison between multiple groups was done using one-way ANOVA with Newman-Keuls post-test with a 95% significance level.
Initial body weights were recorded prior to the initiation of treatment using a digital scale. […]

Broadly, the GI50 is the concentration at which growth is held to half of that of the control. High values mean lower sensitivity of the cells, low ones greater sensitivity of the cells. In turn, `CO[C@H]1CC[C@H](N2C(=O)CNc3ncc(-c4ccc(C(C)(C)O)nc4)nc32)CC1` [Compound 1, 7-(6-(2-hydroxypropan-2-yl)pyridin-3-yl)-1-((1r,4r)-4-methoxycyclohexyl)-3,4-dihydropyrazino-[2,3-b]pyrazin-2(1H)-one] returned a concentration for 50% growth inhibition (GI50) in the data set on HCC1428 of 0.0984 µM. Moreover, the tumor growth inhibition result with HCT-116 tumors (5 mg/kg (BID), 10 mg/kg (BID), 25 mg/kg (QD and Q2D), Day 25) is reported as “Significant (p<0.001) tumor growth inhibition”. In addition, in the data set with HCT-116 tumors (10 mg/kg BID), the Body weight loss was determined as 16.9% and the tumor volume reduction entry was “Approximately 50%”. In the data set on HCT-116 tumors (25 mg/kg QD), this compound registered a Body weight loss of 14%. Moreover, the “minimum dose required to obtain >65% tumor volume reduction compared to vehicle” value in the data set with HCT-116 tumors (QD oral) turned out to be 25 mg/kg. In the data set with HCT-116 tumors (any other group), the “change in body weight” value is listed as “No significant change”.
